Experimental data from patent US5593678A, “Protection of teleost fish” (University of Georgia Research Foundation, priority 1994, dated 1997).
Entries after “also recorded” stand apart in the source; their conditions may differ. Like-named read-outs stand apart in the source and are kept apart here.

Assays:
NCC = conditions: cited from earlier work
[1] = system: NCC (lysis of IM-9 target cells); assay: Costimulation assay: NCC cytotoxicity (51Cr release) with A23187 or mab 5C6; assay type: cell-based, channel catfish (Ictalurus punctatus); conditions: for Percentage specific release: E:T 40:1, 10^-4 M A23187, 60 μM H7 and HA1004, 0.5 μg/ml genistein, 1:3 dilution of tissue culture supernatant, media control 20.6; for influence of pretreatment on A23187 activation: pretreatment prior to A23187; for activity at 0.5 µg/mL: Ictalurus punctatus, IM-9, 2 h
Protocol: Incubation was two hours and cells were either washed or not washed before addition to ^51 Cr-labeled IM-9 target cells (4- to 6-hour cytotoxicity assays).
To further investigate this inhibitory effect, a costimulus experiment was done using a calcium ionophore, e.g., A23187, combined with the various inhibitors and activators of NCC activity. Pretreatment of NCC with A23187 produced an almost identical increase in cytotoxicity regardless of the identity of the first treatment.
In a second costimulus experiment mab 5C6 was used (instead of A23187) to activate cytotoxicity (Table 6).

[2] = system: cyclic nucleotide dependent kinases; conditions: cited from earlier work
[3] = system: NCC (lysis of IM-9 target cells); assay: NCC cytotoxicity (51Cr release) after treatment with protein kinase inhibitors; assay type: cell-based, channel catfish (Ictalurus punctatus); conditions: for inhibition at 30 µM / inhibition at 60 µM: E:T 80:1
Protocol: To prepare NCC, fish were lightly anesthetized with ethyl m-aminobenzoate (Sigma Chemical Co.) in water and sacrificed.
IM-9 target cells were used in cytotoxicity assays. […] Cells were grown in stationary suspension cultures and were maintained at approximately 1×10^6 cells/ml. […]

human NK cells = conditions: same concentration of H-7; cited from earlier work
[4] = system: protein tyrosine kinase (PTK); conditions: NK cells; cited from earlier work
[5] = system: serine/threonine phosphorylation; conditions: NK cells; cited from earlier work
[6] = system: NCC membrane proteins (tyrosine phosphorylation); assay: Tyrosine phosphorylation of NCC membrane proteins following mab 5C6 activation (Western blot); assay type: cell-based, channel catfish (Ictalurus punctatus); conditions: NCC pretreated two hours with inhibitor; 100 μg/ml genistein or 30 μM HA1004
Protocol: FIG. 1. Tyrosine phosphorylation of NCC membrane proteins following activation by mab 5C6. NCC were resuspended at 500×10^6 /ml and 200 μl aliquots were incubated at 37° C. with either 125 μl ammonium sulfate precipitate mab 5C6 (left panel) or an isotype control (right panel). At the indicated timed intervals, the reactions were terminated by addition of 325 μl of 2×lysis buffer. Lysates were immunoprecipitated with mab 4G10, electrophoresed on 11% SDS-PAGE, blotted onto nitrocellulose, and probed with mab 4G10. Molecular weight markers are indicated by the arrows.
FIG. 2. Tyrosine phosphorylation of Percoll-enriched NCC. Fish NCC were centrifuged for 15 minutes at 500 g on a 45.5% Percoll cushion. The cells at the interphase were harvested, washed, and treated with mab 5C6 for 0 and 20 sec before addition of 2×lysis buffer. Lysates were electrophoresed, blotted on nitrocellulose, and probed with mab 4G10.
FIG. 3. Effects of genistein on tyrosine phosphorylation in fish NCC. Fish NCC were incubated with media, genistein (100 μg/ml), or HA1004 (30 μM) for two hours prior to activation for zero time with mab 5C6 (left lane) and 40 sec with either mab 5C6 (middle lane) or an irrelevant IgM isotype control (right lane). Reactions were stopped by addition of lysis buffer and lysates were processed as explained in the legends to FIGS. 1 and 2. […]

## CNc1ccc2oc(C[C@H]3O[C@@]4(CC[C@H]3C)O[C@H]([C@H](C)C(=O)c3ccc[nH]3)[C@H](C)C[C@H]4C)nc2c1C(=O)O [A23187]
NCC
  cytotoxicity of NCC (words, prior work): activated NCC cytotoxicity and increased "receptor" expression
[1]
  Percentage specific release: 81.0%
[1]; Table 5
  activation of NCC cytotoxicity: strong activation of NCC cytotoxicity
[1]; after H-7 or genistein
  ability to overcome kinase inhibitor inhibition of NCC cytotoxicity: able to overcome the inhibition produced by treatment of NCC with H-7 or genistein

## CC1CNCCN1S(=O)(=O)c1cccc2cnccc12.Cl.Cl (stereo not shown) [H-7, 1-(5-isoquinolinesulfonyl)-2-methylpiperazine di-HCl]
[2]
  inhibition of cyclic nucleotide dependent kinases: to a lesser extent it inhibits cyclic nucleotide kinases
[3]; Ictalurus punctatus, 1 h, read-out: Percentage inhibition (NCC lysis of IM-9), 30 μM, 60 min
  inhibition at 30 µM: 12.5%
[3]; Ictalurus punctatus, 1 h, read-out: Percentage inhibition (NCC lysis of IM-9), 60 μM, 60 min
  inhibition at 60 µM: 10.2%
[3]; Ictalurus punctatus, 2 h, read-out: Percentage inhibition (NCC lysis of IM-9), 30 μM, 120 min
  inhibition at 30 µM: 31%
[3]; Ictalurus punctatus, 2 h, read-out: Percentage inhibition (NCC lysis of IM-9), 60 μM, 120 min
  inhibition at 60 µM: 12.6%
[3]; Ictalurus punctatus, 3 h, read-out: Percentage inhibition (NCC lysis of IM-9), 30 μM, 180 min/wash
  inhibition at 30 µM: 34.2%
[3]; Ictalurus punctatus, 3 h, read-out: Percentage inhibition (NCC lysis of IM-9), 30 μM, 180 min
  inhibition at 30 µM: 37.8%
[3]; Ictalurus punctatus, 3 h, read-out: Percentage inhibition (NCC lysis of IM-9), 60 μM, 180 min/wash
  inhibition at 60 µM: 34.5%
[3]; Ictalurus punctatus, 3 h, read-out: Percentage inhibition (NCC lysis of IM-9), 60 μM, 180 min
  inhibition at 60 µM: 35.7%
[3]; summary of Table 1
  level of inhibition of NCC activity: approximately 35%
[3]; washed prior to addition of target cells
  effect of removal (washing) of inhibitor on cytotoxicity: did not substantially affect the cytotoxicity
Human NK cells
  inhibition of human NK cells: 60-90%
[1]; 4 × 10^6 NCC/ml, mabs 1:50 dilution, H-7, HA1004 60 μM, genistein 0.5 μg/ml, 120 min
  Percentage of control (E:T ratio) 40%: 37.5%
[1]
  Percentage specific release: 9.1%
[1]; mabs 1:50 dilution, H-7, HA1004 60 μM, genistein 0.5 μg/ml, 120 min
  Percentage of control (E:T ratio) 20%: 53.9%
[1]; di-HCl
  influence of pretreatment on A23187 activation: did not produce any reductions in A23187 activation; also recorded: did not appear to be additive and did not influence the final level of activation

## O=c1c(-c2ccc(O)cc2)coc2cc(O)cc(O)c12 [Genistein, genistein]
[4]
  PTK activity: inhibit PTK activity
[5]
  serine/threonine phosphorylation: no effect on serine/threonine phosphorylation
[6]
  specific protein phosphorylation after mab 5C6: Specific protein phosphorylation was not observed
[3]
  inhibition of NCC cytotoxicity: almost completely inhibited NCC activity in a dose-dependent fashion
[3]; Ictalurus punctatus, IM-9, 142 μg/ml, read-out: inhibition of cytotoxicity
  inhibition at 142 µg/mL: ~100%
[3]; Ictalurus punctatus, 14.2 μg/ml, E:T 20:1, 6 hours, read-out: Percentage inhibition (NCC lysis of IM-9)
  inhibition at 14.2 µg/mL: 55.5%
[3]; Ictalurus punctatus, 28.4 μg/ml, E:T 20:1, 6 hours, read-out: Percentage inhibition (NCC lysis of IM-9)
  inhibition at 28.4 µg/mL: 75.9%
[3]; Ictalurus punctatus, 57.0 μg/ml, E:T 20:1, 6 hours, read-out: Percentage inhibition (NCC lysis of IM-9)
  inhibition at 57 µg/mL: 64.9%
[3]; Ictalurus punctatus, 142.0 μg/ml, E:T 20:1, 6 hours, read-out: Percentage inhibition (NCC lysis of IM-9)
  inhibition at 142 µg/mL: 94%
[3]; between approximately 14 and approximately 57 μg/ml
  inhibition of cytotoxicity: greater than 50%
[1]
  Percentage specific release: 11.0%
  influence of pretreatment on A23187 activation: did not produce any reductions in A23187 activation; also recorded: did not appear to be additive and did not influence the final level of activation
[1]; 4 × 10^6 NCC/ml, mabs 1:50 dilution, H-7, HA1004 60 μM, genistein 0.5 μg/ml, read-out: Percentage of control (E:T ratio) 40%
  activity at 0.5 µg/mL: 38.9%
[1]; mabs 1:50 dilution, H-7, HA1004 60 μM, genistein 0.5 μg/ml, read-out: Percentage of control (E:T ratio) 20%
  activity at 0.5 µg/mL: 35.5%
